These molecules were tested on HT-29 cells (assay: HT-29 necroptosis cell viability assay (TNF-α/SMAC mimetic/zVAD-FMK, CellTiter-Glo)). Conditions: Homo sapiens, HT-29, HT-29 cells, necroptosis induced by TNF-α/SMAC mimetic/zVAD-FMK, CellTiter-Glo; read-out: Activity (IC50 class).
Format: cell-based
Outline: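 Necroptosis was triggered by TNF-α (10 ng/ml), SMAC mimetic (6 μM) and zVAD-FMK (10 μM) in serum-free medium during 20 h compound exposure (10 concentrations, threefold steps) of HT-29 cells. IC50 from duplicate dose-responses uses CellTiter-Glo ATP luminescence as viability read-out.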

Structure (SMILES)	IC50
N#CCc1nc(COc2ccc(-n3ncn(Cc4c(F)cccc4F)c3=O)cc2F)cs1 [Example 655, 2-[4-[[4-[4-[(2,6-difluorophenyl)methyl]-5-oxo-1,2,4-triazol-1-yl]-2-fluoro-phenoxy]methyl]thiazol-2-yl]acetonitrile]	0.1 to 1 µM

Same assay, conditions: Homo sapiens, HT-29, HT-29 necroptosis cell viability assay; class symbols for IC50; read-out: Activity

Structure (SMILES)	IC50
Cc1cc(C(N)=O)c(C)n1Cc1ccc(-n2ncn(Cc3c(F)cccc3F)c2=O)cc1F [Example 219, 1-(4-(4-(2,6-difluorobenzyl)-5-oxo-4,5-dihydro-1H-1,2,4-triazol-1-yl)-2-fluorobenzyl)-2,5-dimethyl-1H-pyrrole-3-carboxamide]	< 0.1 µM
Cc1nc(C(=O)N2CC(C)(O)C2)sc1Oc1ccc(-n2ncn(Cc3c(F)cccc3F)c2=O)cc1F [Example 597, 4-(2,6-difluorobenzyl)-2-(3-fluoro-4-((2-(3-hydroxy-3-methylazetidine-1-carbonyl)-4-methylthiazol-5-yl)oxy)phenyl)-2,4-dihydro-3H-1,2,4-triazol-3-one]	< 0.1 µM
Cc1nc(C#N)cn1Cc1ccc(-n2ncn(Cc3c(F)cccc3F)c2=O)cc1 [Example 186, 1-(4-(4-(2,6-difluorobenzyl)-5-oxo-4,5-dihydro-1H-1,2,4-triazol-1-yl)benzyl)-2-methyl-1H-imidazole-4-carbonitrile]	< 0.1 µM
Cc1nc(C=C2COC2)sc1Oc1ccc(-n2ncn(Cc3c(F)cccc3F)c2=O)cc1 [Example 547, 4-(2,6-difluorobenzyl)-2-(4-((4-methyl-2-(oxetan-3-ylidenemethyl)thiazol-5-yl)oxy)phenyl)-2,4-dihydro-3H-1,2,4-triazol-3-one]	< 0.1 µM
Cc1nn(-c2ccc(S(=O)(=O)N3CCN(C4COC4)CC3)cc2)c(=O)n1Cc1ccccc1 [Example 623]	> 10 µM
CCOC1(C)CN(c2nccc(Oc3ccc(-n4ncn(Cc5c(F)cccc5F)c4=O)cc3)c2F)C1 [Example 490, 4-(2,6-difluorobenzyl)-2-(4-((2-(3-ethoxy-3-methylazetidin-1-yl)-3-fluoropyridin-4-yl)oxy)phenyl)-2,4-dihydro-3H-1,2,4-triazol-3-one]	< 0.1 µM
Cc1nc(CN)sc1Oc1ccc(-n2ncn(Cc3c(F)cccc3F)c2=O)cc1F [Example 159, 2-(4-((2-(aminomethyl)-4-methylthiazol-5-yl)oxy)-3-fluorophenyl)-4-(2,6-difluorobenzyl)-2,4-dihydro-3H-1,2,4-triazol-3-one]	< 0.1 µM
Cc1nc(C(N)=O)c(C)n1Cc1ccc(-n2ncn(Cc3c(F)cccc3F)c2=O)cc1F [Example 217, 1-(4-(4-(2,6-difluorobenzyl)-5-oxo-4,5-dihydro-1H-1,2,4-triazol-1-yl)-2-fluorobenzyl)-2,5-dimethyl-1H-imidazole-4-carboxamide]	0.1 to 1 µM
CN(c1cc(Oc2ccc(-n3ncn(Cc4c(F)cccc4F)c3=O)cc2)ccn1)C1CC1 [Example 485, 2-(4-((2-(cyclopropyl(methyl)amino)pyridin-4-yl)oxy)phenyl)-4-(2,6-difluorobenzyl)-2,4-dihydro-3H-1,2,4-triazol-3-one]	0.1 to 1 µM
CNC(=O)c1nc(C)c(Oc2ccc(-n3ncn(Cc4ccccc4F)c3=O)cc2F)s1 [Example 595, 5-(2-fluoro-4-(4-(2-fluorobenzyl)-5-oxo-4,5-dihydro-1H-1,2,4-triazol-1-yl)phenoxy)-N,4-dimethylthiazole-2-carboxamide]	< 0.1 µM

Same assay, conditions: Homo sapiens, HT-29, HT-29 necroptosis cell viability, IC50 class symbols; read-out: Activity

Structure (SMILES)	IC50
Cc1nc(NC2=NC(C)(C)CO2)sc1Oc1ccc(-n2ncn(Cc3c(F)cccc3F)c2=O)cc1Cl [Example 298, 2-(3-chloro-4-((2-((4,4-dimethyl-4,5-dihydrooxazol-2-yl)amino)-4-methylthiazol-5-yl)oxy)phenyl)-4-(2,6-difluorobenzyl)-2,4-dihydro-3H-1,2,4-triazol-3-one]	< 0.1 µM
NC1CC2(C1)CC(Nc1cc(Oc3ccc(-n4ncn(Cc5c(F)cccc5F)c4=O)cc3)ccn1)C2 (centres unmarked) [Example 332, 2-(4-((2-((6-aminospiro[3.3]heptan-2-yl)amino)pyridin-4-yl)oxy)phenyl)-4-(2,6-difluorobenzyl)-2,4-dihydro-3H-1,2,4-triazol-3-one]	0.1 to 1 µM
CC1(C#N)CN(c2nccc(Oc3ccc(-n4ncn(Cc5c(F)cccc5F)c4=O)cc3F)c2F)C1 [Example 226, 1-(4-(4-(4-(2,6-difluorobenzyl)-5-oxo-4,5-dihydro-1H-1,2,4-triazol-1-yl)-2-fluorophenoxy)-3-fluoropyridin-2-yl)-3-methylazetidine-3-carbonitrile]	< 0.1 µM
C[C@@H]1CN(c2cc(Oc3ccc(-n4ncn(Cc5c(F)cccc5F)c4=O)cc3)ccn2)C[C@H](C)O1 [Example 382, 4-(2,6-difluorobenzyl)-2-(4-((2-((2R,6S)-2,6-dimethylmorpholino)pyridin-4-yl)oxy)phenyl)-2,4-dihydro-3H-1,2,4-triazol-3-one]	0.1 to 1 µM
N#CC1CN(c2cc(Oc3ccc(-n4ncn(Cc5c(F)cccc5F)c4=O)cc3)ccn2)C1 [Example 338, 1-(4-(4-(4-(2,6-difluorobenzyl)-5-oxo-4,5-dihydro-1H-1,2,4-triazol-1-yl)phenoxy)pyridin-2-yl)azetidine-3-carbonitrile]	0.1 to 1 µM
Cc1nc(N2CC(N)(CF)C2)sc1Cc1ccc(-n2ncn(Cc3c(F)cccc3F)c2=O)cc1F [Example 453, 2-(4-((2-(3-amino-3-(fluoromethyl)azetidin-1-yl)-4-methylthiazol-5-yl)methyl)-3-fluorophenyl)-4-(2,6-difluorobenzyl)-2,4-dihydro-3H-1,2,4-triazol-3-one]	< 0.1 µM
O=c1n(Cc2c(F)cccc2F)cnn1-c1ccc(Oc2ccnc(N3CC4(CCOCC4)C3)c2)cc1 [Example 339, 2-(4-((2-(7-oxa-2-azaspiro[3.5]nonan-2-yl)pyridin-4-yl)oxy)phenyl)-4-(2,6-difluorobenzyl)-2,4-dihydro-3H-1,2,4-triazol-3-one]	< 0.1 µM

Same assay, conditions: Homo sapiens; HT-29 cells stimulated with TNF-α (10 ng/ml), SMAC mimetic (6 μM) and zVAD-FMK (10 μM); 20 hours; CellTiter-Glo ATP luminescence; geometric mean IC50 from 10 points; read-out: Activity

Structure (SMILES)	IC50
Cc1nc(C(=O)NCCN)sc1Oc1ccc(-n2ncn(Cc3ccccc3F)c2=O)cc1F [Example 27, N-(2-aminoethyl)-5-(2-fluoro-4-(4-(2-fluorobenzyl)-5-oxo-4,5-dihydro-1H-1,2,4-triazol-1-yl)phenoxy)-4-methylthiazole-2-carboxamide]	< 0.1 µM
Cc1nc(N2CC(OC(F)F)C2)sc1Oc1ccc(-n2ncn(Cc3c(F)cccc3F)c2=O)cc1 [Example 49, 4-(2,6-difluorobenzyl)-2-(4-((2-(3-(difluoromethoxy)azetidin-1-yl)-4-methylthiazol-5-yl)oxy)phenyl)-2,4-dihydro-3H-1,2,4-triazol-3-one]	< 0.1 µM
Cc1nc(C(=O)NC2COC2)sc1Oc1ccc(-n2nc3n(c2=O)[C@H](c2ccccc2)CC3)cc1F [Example 21, (S)-5-(2-fluoro-4-(3-oxo-5-phenyl-6,7-dihydro-3H-pyrrolo[2,1-c][1,2,4]triazol-2(5H)-yl)phenoxy)-4-methyl-N-(oxetan-3-yl)thiazole-2-carboxamide]	< 0.1 µM
CCOC1CN(c2cc(Oc3ccc(-n4ncn(Cc5c(F)cccc5F)c4=O)cc3)c(C)s2)C1 [Example 85, 4-(2,6-difluorobenzyl)-2-(4-((5-(3-ethoxyazetidin-1-yl)-2-methylthiophen-3-yl)oxy)phenyl)-2,4-dihydro-3H-1,2,4-triazol-3-one]	> 10 µM
Cc1nc(N2C[C@H](C#N)[C@@H]2C)sc1Cc1ccc(-n2ncn(Cc3c(F)cccc3F)c2=O)cc1 [Example 63, (2S,3S)-1-(5-(4-(4-(2,6-difluorobenzyl)-5-oxo-4,5-dihydro-1H-1,2,4-triazol-1-yl)benzyl)-4-methylthiazol-2-yl)-2-methylazetidine-3-carbonitrile]	< 0.1 µM
